This is an account of results in patent US20070049593A1 (priority 2004, published 2007).

pIC50: −log10 of the molar value. Where a name gives a salt, the structure may show the parent alone.

The target of the first assay is T1, HCV polymerase (Hepatitis C virus genotype 1b, UniProt P26663).
T1 construct: a region encoding NS5B (J Virol 1991 March, 65(3), 1105-13, 544 amino acids after deletion of 47 amino acids on the C-terminal); 6xHis (C); made in house; host or cells: Escherichia coli
T1 sequence (P26663 2420-2963): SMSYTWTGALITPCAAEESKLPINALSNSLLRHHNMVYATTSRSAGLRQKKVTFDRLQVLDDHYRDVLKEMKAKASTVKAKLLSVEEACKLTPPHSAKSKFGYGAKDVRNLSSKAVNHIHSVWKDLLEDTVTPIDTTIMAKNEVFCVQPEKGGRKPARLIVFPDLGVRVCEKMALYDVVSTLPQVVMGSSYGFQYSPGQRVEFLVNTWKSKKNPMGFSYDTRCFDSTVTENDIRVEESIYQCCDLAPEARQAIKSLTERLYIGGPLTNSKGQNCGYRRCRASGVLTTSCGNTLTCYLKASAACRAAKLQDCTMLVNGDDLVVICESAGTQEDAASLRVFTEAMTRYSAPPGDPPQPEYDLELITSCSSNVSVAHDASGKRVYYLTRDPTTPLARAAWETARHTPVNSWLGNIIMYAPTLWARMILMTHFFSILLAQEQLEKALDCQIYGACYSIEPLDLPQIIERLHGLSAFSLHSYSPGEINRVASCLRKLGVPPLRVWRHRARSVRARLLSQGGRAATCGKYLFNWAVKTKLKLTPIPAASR
The assay can be described thus: biochemical. More on the design: species or system HCV BK strain.
Details: not given
In a few lines: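 His-tagged NS5B (BK strain, 47-aa C-terminal deletion, E. coli-expressed) at 0.5 μg/ml copied 5 μg/ml run-off RNA bearing the HCV 3′ UTR with 2 μM UTP plus [3H]UTP, 50 μM ATP/GTP, in pH 7.5 Tris with 5 mM MgCl2, 25 °C, 90 min. TCA-precipitated RNA was counted and IC50 calculated.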
The compound `O=C(O)c1ccc2c(C3CCCCC3)c3n(c2c1)CCN(CCN1CCCCC1)c1cc(F)c(F)cc1-3` [Example 1-248, 13-cyclohexyl-2,3-difluoro-5-[2-(piperidin-1-yl)ethyl]-6,7-dihydro-5H-benzo[5,6][1,4]diazepino[7,1-a]indole-10-carboxylic acid dihydrochloride] had a pIC50 of more than 7.00.

`CCC1CCCN(CCN2CCn3c(c(C4CCCCC4)c4ccc(C(=O)O)cc43)-c3ccc(Cl)cc32)C1` (stereo not shown) [Example 1-249, 3-chloro-13-cyclohexyl-5-[2-(3-ethylpiperidin-1-yl)ethyl]-6,7-dihydro-5H-benzo[5,6][1,4]diazepino[7,1-a]indole-10-carboxylic acid dihydrochloride] had a pIC50 of more than 7.00.

`COC(=O)N1CCC(N(C)CCN2CCn3c(c(C4CCCCC4)c4ccc(C(=O)O)cc43)-c3ccccc32)C1` (stereo not shown) [Example 1-250, 13-cyclohexyl-5-{2-[N-(1-methoxycarbonylpyrrolidin-3-yl)-N-methylamino]ethyl}-6,7-dihydro-5H-benzo[5,6][1,4]diazepino[7,1-a]indole-10-carboxylic acid monohydrochloride] had a negative-log IC50 (pIC50) of more than 7.00. As for `CC(=O)N1CCC(N(C)CCN2CCn3c(c(C4CCCCC4)c4ccc(C(=O)O)cc43)-c3ccccc32)C1` (stereo not shown) [Example 1-251, 5-{2-[N-(1-acetylpyrrolidin-3-yl)-N-methylamino]ethyl}-13-cyclohexyl-6,7-dihydro-5H-benzo[5,6][1,4]diazepino[7,1-a]indole-10-carboxylic acid monohydrochloride], the pIC50 is more than 7.00. In turn, `CN(CCN1CCn2c(c(C3CCCCC3)c3ccc(C(=O)O)cc32)-c2ccccc21)C1CCN(S(C)(=O)=O)C1` (stereo not shown) [Example 1-252, 13-cyclohexyl-5-{2-[N-(1-methanesulfonylpyrrolidin-3-yl)-N-methylamino]ethyl}-6,7-dihydro-5H-benzo[5,6][1,4]diazepino[7,1-a]indole-10-carboxylic-acid] showed a pIC50 of more than 7.00. `Cc1ccc2c(c1)N(CCN1CCCC(C)C1)CCn1c-2c(C2CCCCC2)c2ccc(C(=O)O)cc21` (stereo not shown) [Example 1-253, 13-cyclohexyl-3-methyl-5-[2-(3-methylpiperidin-1-yl)ethyl]-6,7-dihydro-5H-benzo[5,6][1,4]diazepino[7,1-a]indole-10-carboxylic acid dihydrochloride] gave a pIC50 of more than 7.00. The same measure, in the same setting: the value for `CC1CCCN(CCN2CCn3c(c(C4CCCCC4)c4ccc(C(=O)O)cc43)-c3ccc(F)cc32)C1` (stereo not shown) [Example 1-254, 13-cyclohexyl-3-fluoro-5-[2-(3-methylpiperidin-1-yl)ethyl]-6,7-dihydro-5H-benzo[5,6][1,4]diazepino[7,1-a]indole-10-carboxylic acid dihydrochloride] was more than 7.00.

Consider `CC1CN(CCN2CCn3c(c(C4CCCCC4)c4ccc(C(=O)O)cc43)-c3ccccc32)CCO1` (stereo not shown) [Example 1-255, 13-cyclohexyl-5-[2-(2-methylmorpholin-4-yl)ethyl]-6,7-dihydro-5H-benzo[5,6][1,4]diazepino[7,1-a]indole-10-carboxylic acid dihydrochloride], for which the pIC50 is more than 7.00. On the same count and under the same terms, as for `CCC1CN(CCN2CCn3c(c(C4CCCCC4)c4ccc(C(=O)O)cc43)-c3ccccc32)CCO1` (stereo not shown) [Example 1-256, 13-cyclohexyl-5-[2-(2-ethylmorpholin-4-yl)ethyl]-6,7-dihydro-5H-benzo[5,6][1,4]diazepino[7,1-a]indole-10-carboxylic acid dihydrochloride], the figure is more than 7.00. Compound `CCC1COCCN1CCN1CCn2c(c(C3CCCCC3)c3ccc(C(=O)O)cc32)-c2ccccc21` (stereo not shown) [Example 1-257, 13-cyclohexyl-5-[2-(3-ethylmorpholin-4-yl)ethyl]-6,7-dihydro-5H-benzo[5,6][1,4]diazepino[7,1-a]indole-10-carboxylic acid dihydrochloride] gave a pIC50 of more than 7.00. Consider `Cc1ccc2c(c1)N(CCN1CCCCC1C)CCn1c-2c(C2CCCCC2)c2ccc(C(=O)O)cc21` (stereo not shown) [Example 1-258, 13-cyclohexyl-3-methyl-5-[2-(2-methylpiperidin-1-yl)ethyl]-6,7-dihydro-5H-benzo[5,6][1,4]diazepino[7,1-a]indole-10-carboxylic acid dihydrochloride], for which the pIC50 was more than 7.00. The compound `Cc1ccc2c(c1)N(CCN1CCC(C)CC1)CCn1c-2c(C2CCCCC2)c2ccc(C(=O)O)cc21` [Example 1-259, 13-cyclohexyl-3-methyl-5-[2-(4-methylpiperidin-1-yl)ethyl]-6,7-dihydro-5H-benzo[5,6][1,4]diazepino[7,1-a]indole-10-carboxylic acid dihydrochloride] gave a negative-log IC50 (pIC50) of more than 7.00. In turn, `Cc1ccc2c(c1)N(CCN1CCCC1)CCn1c-2c(C2CCCCC2)c2ccc(C(=O)O)cc21` [Example 1-260, 13-cyclohexyl-3-methyl-5-[2-(pyrrolidin-1-yl)ethyl]-6,7-dihydro-5H-benzo[5,6][1,4]diazepino[7,1-a]indole-10-carboxylic acid dihydrochloride] had a pIC50 of more than 7.00. For the compound `CCN1CCCC(CCN2CCn3c(c(C4CCCCC4)c4ccc(C(=O)O)cc43)-c3ccc(Cl)cc32)C1` (stereo not shown) [Example 1-261, 3-chloro-13-cyclohexyl-5-[2-(1-ethylpiperidin-3-yl)ethyl]-6,7-dihydro-5H-benzo[5,6][1,4]diazepino[7,1-a]indole-10-carboxylic acid dihydrochloride], the pIC50 is more than 7.00. On the same count and under the same terms, the value for `CN1CCC(OCCN2CCn3c(c(C4CCCCC4)c4ccc(C(=O)O)cc43)-c3ccc(Cl)cc32)CC1` [Example 1-262, 3-chloro-13-cyclohexyl-5-[2-(1-methylpiperidin-4-yloxy)ethyl]-6,7-dihydro-5H-benzo[5,6][1,4]diazepino[7,1-a]indole-10-carboxylic acid dihydrochloride] was more than 7.00.

The compound `CC(C)CN1CCCC(CCN2CCn3c(c(C4CCCCC4)c4ccc(C(=O)O)cc43)-c3ccc(Cl)cc32)C1` (stereo not shown) [Example 1-263, 3-chloro-13-cyclohexyl-5-[2-(1-isobutylpiperidin-3-yl)ethyl]-6,7-dihydro-5H-benzo[5,6][1,4]diazepino[7,1-a]indole-10-carboxylic acid dihydrochloride] showed a pIC50 of more than 7.00.

On to `O=C(O)c1ccc2c(C3CCCCC3)c3n(c2c1)CCN(CCC1CCCN(C2CCCC2)C1)c1cc(Cl)ccc1-3` (stereo not shown) [Example 1-264, 3-chloro-13-cyclohexyl-5-[2-(1-cyclopentylpiperidin-3-yl)ethyl]-6,7-dihydro-5H-benzo[5,6][1,4]diazepino[7,1-a]indole-10-carboxylic acid dihydrochloride], for which the pIC50 was more than 7.00. `COC1CCCN(CCN2CCn3c(c(C4CCCCC4)c4ccc(C(=O)O)cc43)-c3ccc(Cl)cc32)C1` (stereo not shown) [Example 1-265, 3-chloro-13-cyclohexyl-5-[2-(3-methoxypiperidin-1-yl)ethyl]-6,7-dihydro-5H-benzo[5,6][1,4]diazepino[7,1-a]indole-10-carboxylic acid dihydrochloride] had a pIC50 of more than 7.00. Consider `COC1CCCN(CCN2CCn3c(c(C4CCCCC4)c4ccc(C(=O)O)cc43)-c3ccc(C)cc32)C1` (stereo not shown) [Example 1-266, 13-cyclohexyl-5-[2-(3-methoxypiperidin-1-yl)ethyl]-3-methyl-6,7-dihydro-5H-benzo[5,6][1,4]diazepino[7,1-a]indole-10-carboxylic acid dihydrochloride], for which the negative logarithm of the IC50 (pIC50) is more than 7.00. On the same count and under the same terms, the value for `CCCC1CCCN(CCN2CCn3c(c(C4CCCCC4)c4ccc(C(=O)O)cc43)-c3ccc(Cl)cc32)C1` (stereo not shown) [Example 1-267, 3-chloro-13-cyclohexyl-5-[2-(3-propylpiperidin-1-yl)ethyl]-6,7-dihydro-5H-benzo[5,6][1,4]diazepino[7,1-a]indole-10-carboxylic acid dihydrochloride] was more than 7.00; that for `O=C(O)c1ccc2c(C3CCCCC3)c3n(c2c1)CCN(CCCN1CCCC1)c1cc(Cl)ccc1-3` [Example 1-269, 3-chloro-13-cyclohexyl-5-[3-(pyrrolidin-1-yl)propyl]-6,7-dihydro-5H-benzo[5,6][1,4]diazepino[7,1-a]indole-10-carboxylic acid dihydrochloride] was more than 7.00; that for `O=C(O)c1ccc2c(C3CCCCC3)c3n(c2c1)CCN(CCCN1CCCOCC1)c1cc(Cl)ccc1-3` [Example 1-270, 3-chloro-13-cyclohexyl-5-[3-(1,4-oxazepan-4-yl)propyl]-6,7-dihydro-5H-benzo[5,6][1,4]diazepino[7,1-a]indole-10-carboxylic acid dihydrochloride] was more than 7.00. `COCC1CCCCN1CCN1CCn2c(c(C3CCCCC3)c3ccc(C(=O)O)cc32)-c2ccccc21` (stereo not shown) [Example 1-271, 13-cyclohexyl-5-[2-(2-methoxymethylpiperidin-1-yl)ethyl]-6,7-dihydro-5H-benzo[5,6][1,4]diazepino[7,1-a]indole-10-carboxylic acid dihydrochloride]: the negative logarithm of the IC50 (pIC50) is more than 7.00. In turn, `CCC1CCCN(CCN2CCn3c(c(C4CCCCC4)c4ccc(C(=O)O)cc43)-c3ccc(C)cc32)C1` (stereo not shown) [Example 1-272, 13-cyclohexyl-5-[2-(3-ethylpiperidin-1-yl)ethyl]-3-methyl-6,7-dihydro-5H-benzo[5,6][1,4]diazepino[7,1-a]indole-10-carboxylic acid dihydrochloride] had a pIC50 of more than 7.00.

Still in this assay, the particulars now being: 25° C., 90 min; [5,6-3H]UTP incorporation into RNA; read-out: HCV polymerase inhibitory activity IC50.
For `CCCC1CCCN(CCN2CCn3c(c(C4CCCCC4)c4ccc(C(=O)O)cc43)-c3ccc(C)cc32)C1` (stereo not shown) [Example 1-268, 13-cyclohexyl-3-methyl-5-[2-(3-propylpiperidin-1-yl)ethyl]-6,7-dihydro-5H-benzo[5,6][1,4]diazepino[7,1-a]indole-10-carboxylic acid dihydrochloride], the pIC50 is more than 7.00.
